We go through twelve compounds from patent US9133180B2, “Aurora and FLT3 kinases modulators” (SAREUM LIMITED, priority 2012, dated 2015).

One series deals with Aurora A kinase (Homo sapiens (Human), UniProt O14965). Put plainly: Aurora A kinase 33P-ATP filter assay (Reaction Biology Corp.). The format is biochemical. The procedure:
(§1) The ability of the compounds of the invention to inhibit FLT3 kinase and Aurora A and Aurora B kinases was determined using the assays described below.
(§2) Kinase assays were performed at Reaction Biology Corp., Malvern, Pa., USA, using the following general procedure:
(§3) 1) Prepare indicated substrate in freshly prepared Base Reaction Buffer (20 mM Hepes pH 7.5, 10 mM MgCl2, 1 mM EGTA, 0.02% Brij35, 0.02 mg/ml BSA, 0.1 mM Na3VO4, 2 mM DTT, 1% DMSO).
(§4) 2) Deliver cofactors (1.5 mM CaCl2, 16 ug/mL Calmodulin, 2 mM MnCl2) to the substrate solution above.
(§5) 3) Deliver indicated kinase into the substrate solution and gently mix
(§6) 4) Deliver varying concentrations of test compound in DMSO into the kinase reaction mixture.
(§7) 5) Deliver ^33P-ATP (specific activity 0.01 µCi/µL final) into the reaction mixture to initiate the reaction.
(§8) 6) Incubate kinase reaction for 120 min at room temperature.
(§9) 7) Reactions are spotted onto P81 ion exchange filter paper (Whatman #3698-915)
(§10) 8) Unbound phosphate is removed by washing filters extensively in 0.75% phosphoric acid.
(§11) 9) ^33P signal was determined using Typhoon phosphorimagers (GE Healthcare).
(§12) Substrates: Kemptide=[H-LRRASLG] Abltide=[[…]]

A further series addresses Aurora B kinase (Homo sapiens (Human), UniProt Q96GD4). Description: Aurora B kinase 33P-ATP filter assay (Reaction Biology Corp.). The format is biochemical. The procedure: as §1, §2, §3, §4, §5, §6, §7, §8, §9, §10, §11, §12
In the next series the target is FLT3 kinase (Homo sapiens (Human), UniProt P36888). Put plainly: FLT3 kinase 33P-ATP filter assay (Reaction Biology Corp.). In kind it is biochemical. The procedure:
as §1, §2, §3, §4, §5, §6, §7, §8, §9, §10, §11, §12

Series [1] has as its system HCT-116. Put plainly: Anti-proliferative activity, Alamar Blue assay. In kind it is cell-based. Conditions: Homo sapiens, 96 h exposure, read-out: HCT116 96 Hrs IC50. The procedure:
(§13) The anti-proliferative activities of compounds of the invention are determined by measuring the ability of the compounds to inhibit the growth of the colorectal cancer derived cell-line HCT-116. Inhibition of cell growth is measured using the Alamar Blue assay (Nociari et al., Journal of Immunological Methods (1998) 213, 157-167). The method is based on the ability of viable cells to reduce resazurin to its fluorescent product resorufin. For each proliferation assay cells are plated onto 96 well plates and allowed to recover for 16 hours prior to the addition of inhibitor compounds for a further 96 hours. At the end of the incubation period 10% (v/v) Alamar Blue is added and incubated for a further 6 hours prior to determination of fluorescent product at Excitation 535 nm and Emission 590 nm. All cell lines are obtained from ECACC (European Collection of cell Cultures).
(§14) The activities of the compounds of the invention against the human colorectal cancer cell line HCT-116 are shown the in the table below. The column headed HCT-116 96 Hrs refers to the concentration of compound required to reduce the proliferation of HCT-116 cells by 50% following a 96 h period of exposure. The column headed [Polyploidy] refers to the lowest concentration of compound required to produce a distinct polyploid phenotype, believed to be due to Aurora B inhibition.
For orientation: The colour change of resazurin is a common sign of viable cells or microbes.

Series [2] relates to HCT-116. Put plainly: Polyploid phenotype in HCT-116 cells. In kind it is cell-based, human. The procedure:
as §13, §14

Series [3] can be described thus: Caco-2 permeability assay. The format is in vitro ADME. Conditions: human; for Papp A→B: A2B, read-out: Caco2 A2B Papp; for Papp B→A: B2A, read-out: Caco2 B2A Papp; for efflux ratio: B2A:A2B, read-out: Caco2 Efflux ratio. The procedure: The ability of a compound to be taken up and retained by a cell can be measured by carrying out permeability studies using Caco-2 cells.
Compounds of the present invention were therefore tested in a standard Caco-2 assay and the rate of flow of the compounds into and out of the cells was determined.
In the table, the column headed “Caco-2 A2B” indicates the rate at which compound flows into the cells and the column Caco-2 B2A indicates the rate at which compound flows out of the cells. The “Efflux Ratio” is the ratio of Caco-2 B2A:Caco-2 A2B.

The next series relates to MV4-11 xenograft tumors. Put plainly: MV4-11 xenograft study in nude mice. In kind it is in vivo, Balb/c nude mouse. Conditions: 100 mg/kg IP once daily, 4 cycles. The text has this: The in vivo antitumour activity of compounds of the invention was investigated by examining the effect of the compounds of Examples 2 and 7 on tumour growth in a nude mouse xenograft model of the MV4-11 cancer cell line.
MV4-11 cell line (ATCC, USA); RPMI 1640 medium (Invitrogen, USA); FBS (Invitrogen, Australia); Balb/c nude mouse (Slac Laboratory Animal Co., Ltd., Shanghai, China): female, 18-22 g; HP-6-CD (Sigma, USA).
A total of 52 female nude mice were used. The mice were allowed 3 days of acclimatization period before starting the experiment. Mice were implanted subcutaneously (s.c.) with 200 μl of 1×10^7MV4-11 tumour cells in 50% Matrigel in the right flank at the beginning of the study. When tumours reached an average volume of 100-150 mm^3, 32 mice out of the 52 were selected based on tumour volume, and randomly assigned to 4 groups prior to dosing. Each treatment group consisted of 8 tumour-bearing animals (n=8/group).
A comparison group of mice were treated with cytarabine once daily for 5 days on, 2 days off, for 4 cycles.
Mice were weighed at each dosing and the tumour sizes recorded twice each week. Mice were observed closely for any overt signs of adverse, treatment-related side effects and these were recorded if and when they were observed.
The tumour size was measured twice weekly in two dimensions using calipers, and the volume was expressed in mm^3 using the formula: V=0.5 a×b^2 where a and b were the long and short diameters of the tumour, respectively.
Mice were euthanized by CO2 exposure after 4-cycle dose. The tumour volume, weight of dissected tumours, and the mouse body weight were measured and recorded. The tumour inhibitory rate (IR) was calculated by the formula IR=(WV−WT)/WV×100%.
The differences in tumour size between the groups were analyzed for significance using the unpaired two-tailed Student's t-test. P<0.05 was considered to be statistically significant.

Aurora B kinase, sequence (Q96GD4 whole entry): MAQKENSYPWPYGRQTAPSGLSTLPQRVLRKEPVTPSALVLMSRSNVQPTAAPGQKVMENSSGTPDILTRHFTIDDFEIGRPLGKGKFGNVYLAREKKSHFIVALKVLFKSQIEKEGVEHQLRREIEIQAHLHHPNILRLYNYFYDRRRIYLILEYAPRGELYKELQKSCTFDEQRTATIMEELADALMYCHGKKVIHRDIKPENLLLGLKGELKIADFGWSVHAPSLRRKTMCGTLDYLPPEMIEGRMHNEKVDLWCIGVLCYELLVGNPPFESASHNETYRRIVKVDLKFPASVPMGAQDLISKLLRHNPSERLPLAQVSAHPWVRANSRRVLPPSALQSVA
FLT3 kinase, sequence (P36888 27-993): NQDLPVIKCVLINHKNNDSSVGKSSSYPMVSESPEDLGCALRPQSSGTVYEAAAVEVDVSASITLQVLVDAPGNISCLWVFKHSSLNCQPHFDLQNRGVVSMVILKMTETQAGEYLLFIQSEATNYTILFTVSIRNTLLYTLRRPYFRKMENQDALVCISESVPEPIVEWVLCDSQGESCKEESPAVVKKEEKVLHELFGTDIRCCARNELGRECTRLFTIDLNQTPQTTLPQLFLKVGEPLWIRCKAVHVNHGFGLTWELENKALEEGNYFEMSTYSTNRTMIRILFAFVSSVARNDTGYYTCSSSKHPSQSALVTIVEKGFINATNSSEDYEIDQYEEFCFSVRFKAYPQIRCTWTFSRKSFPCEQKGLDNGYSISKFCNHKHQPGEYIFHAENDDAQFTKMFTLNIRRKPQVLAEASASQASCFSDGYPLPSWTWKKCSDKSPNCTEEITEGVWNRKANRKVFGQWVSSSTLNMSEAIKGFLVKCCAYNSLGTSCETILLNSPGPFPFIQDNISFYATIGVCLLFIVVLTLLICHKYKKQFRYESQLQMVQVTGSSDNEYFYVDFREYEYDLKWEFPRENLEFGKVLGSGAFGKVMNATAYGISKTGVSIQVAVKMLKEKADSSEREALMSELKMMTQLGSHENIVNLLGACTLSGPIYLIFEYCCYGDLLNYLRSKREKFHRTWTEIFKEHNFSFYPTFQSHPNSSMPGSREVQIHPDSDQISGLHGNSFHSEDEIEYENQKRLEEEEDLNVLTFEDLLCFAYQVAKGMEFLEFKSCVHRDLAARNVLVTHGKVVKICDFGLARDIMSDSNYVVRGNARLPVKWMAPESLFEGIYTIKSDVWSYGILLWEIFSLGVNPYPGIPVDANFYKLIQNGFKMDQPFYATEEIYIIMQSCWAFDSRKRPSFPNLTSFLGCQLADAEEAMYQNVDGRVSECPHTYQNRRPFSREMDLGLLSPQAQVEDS
Aurora A kinase, sequence (O14965 whole entry): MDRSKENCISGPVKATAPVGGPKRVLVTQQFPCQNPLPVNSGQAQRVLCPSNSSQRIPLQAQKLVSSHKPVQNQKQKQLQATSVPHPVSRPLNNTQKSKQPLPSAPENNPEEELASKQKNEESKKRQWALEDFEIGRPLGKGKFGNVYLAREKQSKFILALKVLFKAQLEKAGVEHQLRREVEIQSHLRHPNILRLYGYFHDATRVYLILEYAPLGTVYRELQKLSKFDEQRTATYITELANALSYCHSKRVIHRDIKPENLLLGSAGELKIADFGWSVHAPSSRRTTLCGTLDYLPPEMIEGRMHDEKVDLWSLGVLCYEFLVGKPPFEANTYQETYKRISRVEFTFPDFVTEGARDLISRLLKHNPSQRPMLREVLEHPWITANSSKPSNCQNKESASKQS

Broadly, the IC50 is the concentration that inhibits the measured activity by half. As for `CC1(C)CN(c2ccc(-c3oc(-c4c(F)ccc5[nH]ccc45)nc3C(N)=O)cc2)CCN1` [Example 1, 2-(5-Fluoro-1H-Indol-4-yl)-5-[4-(3,3-dimethyl-piperazin-1-yl)-phenyl]-oxazole-4-carboxylic acid amide], the IC50 worked out at 14.6 nM on Aurora A kinase, 24.3 nM against Aurora B kinase, 1.92 nM at FLT3 kinase and 240 nM with HCT-116 [1]. For the same compound, the “[Polyploidy] lowest concentration producing a distinct polyploid phenotype” value in the series on HCT-116 [2] is 0.3 µM. For the same compound, in series [3], the Papp A→B was 0.707 ×10⁻⁶ cm/s. In series [3], the Papp B→A was found to be 22.8 ×10⁻⁶ cm/s. Also, the efflux ratio in series [3] amounted to 32.2.
On to `CC1(C)CN(c2ccc(-c3oc(-c4ccc(F)c5[nH]ccc45)nc3C(N)=O)cc2)CCN1` [Example 3, 2-(7-Fluoro-1H-Indol-4-yl)-5-[4-(3,3-dimethyl-piperazin-1-yl)-phenyl]-oxazole-4-carboxylic acid amide], for which the IC50 on Aurora A kinase amounted to 19.4 nM; against Aurora B kinase it was 9.36 nM; against FLT3 kinase, 0.821 nM; in the series with HCT-116 [1], 120 nM. The “[Polyploidy] lowest concentration producing a distinct polyploid phenotype” value with HCT-116 [2] was determined as 0.1 µM. Further, in series [3], the Papp A→B amounted to 1.17 ×10⁻⁶ cm/s. Besides, in series [3], the Papp B→A came out at 7.76 ×10⁻⁶ cm/s. For the same compound, the efflux ratio in series [3] turned out to be 6.62.
For `CC1(C)CN(c2ccc(-c3oc(-c4ccc(Cl)c5[nH]ccc45)nc3C(N)=O)cc2)CCN1` [Example 4, 2-(7-Chloro-1H-Indol-4-yl)-5-[4-(3,3-dimethyl-piperazin-1-yl)-phenyl]-oxazole-4-carboxylic acid amide], the IC50 at Aurora A kinase worked out at 34 nM; at Aurora B kinase, 13.9 nM; against FLT3 kinase it was 0.97 nM; in the series on HCT-116 [1], 260 nM. The “[Polyploidy] lowest concentration producing a distinct polyploid phenotype” value in the series with HCT-116 [2] turned out to be 0.3 µM. In series [3], the Papp A→B came out at 0.64 ×10⁻⁶ cm/s. Moreover, the Papp B→A in series [3] stood at 2.76 ×10⁻⁶ cm/s. Also, the efflux ratio in series [3] is 4.32.
Regarding `COc1ccc(-c2nc(C(N)=O)c(-c3ccc(N4CCNC(C)(C)C4)cc3)o2)c2cc[nH]c12` [Example 5, 2-(7-Methoxy-1H-Indol-4-yl)-5-[4-(3,3-dimethyl-piperazin-1-yl)-phenyl]-oxazole-4-carboxylic acid amide], the IC50 on Aurora A kinase amounted to 20.5 nM; against Aurora B kinase, 8.78 nM; at FLT3 kinase, 0.89 nM; in the series with HCT-116 [1], 87 nM. For the same compound, the “[Polyploidy] lowest concentration producing a distinct polyploid phenotype” value in the series with HCT-116 [2] is 0.1 µM. Also, the Papp A→B in series [3] turned out to be 1.36 ×10⁻⁶ cm/s. For the same compound, the Papp B→A in series [3] turned out to be 11 ×10⁻⁶ cm/s.
As for `Cc1cc(C)c2[nH]ccc2c1-c1nc(C(N)=O)c(-c2ccc(N3CCNC(C)(C)C3)cc2)o1` [Example 6, 2-(5,7-Dimethyl-1H-Indol-4-yl)-5-[4-(3,3-dimethyl-piperazin-1-yl)-phenyl]-oxazole-4-carboxylic acid amide], the half-inhibitory concentration (IC50) is 88.4 nM against Aurora A kinase, 19.6 nM against Aurora B kinase, 1.37 nM at FLT3 kinase and 160 nM with HCT-116 [1]. For the same compound, the “[Polyploidy] lowest concentration producing a distinct polyploid phenotype” value with HCT-116 [2] was 0.1 µM. Moreover, the Papp A→B in series [3] amounted to 0.514 ×10⁻⁶ cm/s. Moreover, the Papp B→A in series [3] came out at 2.08 ×10⁻⁶ cm/s. In addition, the efflux ratio in series [3] amounted to 4.04.
`Cc1c[nH]c2cccc(-c3nc(C(N)=O)c(-c4ccc(N5CCNC(C)(C)C5)cc4)o3)c12` [Example 8, 2-(3-Methyl-1H-Indol-4-yl)-5-[4-(3,3-dimethyl-piperazin-1-yl)-phenyl]-oxazole-4-carboxylic acid amide] displayed an IC50 against Aurora A kinase of 271 nM. The compound further yielded an IC50 against Aurora B kinase of 14.2 nM. In addition, at FLT3 kinase, it took 0.55 nM to reach half-maximal inhibition (IC50). For the same compound, in series [3], the Papp A→B amounted to 2.07 ×10⁻⁶ cm/s, the Papp B→A stood at 9.19 ×10⁻⁶ cm/s and the efflux ratio is 4.45.
As to `CCc1ccc2[nH]ccc2c1-c1nc(C(N)=O)c(-c2ccc(N3CCNC(C)(C)C3)cc2)o1` [Example 9, 2-(5-Ethyl-1H-Indol-4-yl)-5-[4-(3,3-dimethyl-piperazin-1-yl)-phenyl]-oxazole-4-carboxylic acid amide], in series [3], the Papp A→B worked out at 0.519 ×10⁻⁶ cm/s, the Papp B→A came to 3.59 ×10⁻⁶ cm/s and the efflux ratio was found to be 6.91.
For `CCc1ccc(-c2nc(C(N)=O)c(-c3ccc(N4CCNC(C)(C)C4)cc3)o2)c2cc[nH]c12` [Example 10, 2-(7-Ethyl-1H-Indol-4-yl)-5-[4-(3,3-dimethyl-piperazin-1-yl)-phenyl]-oxazole-4-carboxylic acid amide], the IC50 in the series with HCT-116 [1] was 220 nM. Besides, the “[Polyploidy] lowest concentration producing a distinct polyploid phenotype” value with HCT-116 [2] worked out at 0.3 µM. Also, in series [3], the Papp A→B was found to be 0.37 ×10⁻⁶ cm/s and the Papp B→A amounted to 2.35 ×10⁻⁶ cm/s.
With `CC1(C)CN(c2ccc(-c3oc(-c4cccc5[nH]ccc45)nc3C(N)=O)cc2)CCN1` [Example 11, 2-(1H-Indol-4-yl)-5-[4-(3,3-dimethyl-piperazin-1-yl)-phenyl]-oxazole-4-carboxylic acid amide], the IC50 on Aurora A kinase worked out at 46.2 nM; against Aurora B kinase it was 15.2 nM; in the series on HCT-116 [1] it was 170 nM. Also, the “[Polyploidy] lowest concentration producing a distinct polyploid phenotype” value with HCT-116 [2] came to 0.1 µM. Besides, the Papp A→B in series [3] worked out at 2.47 ×10⁻⁶ cm/s. Besides, the Papp B→A in series [3] was found to be 12.6 ×10⁻⁶ cm/s.
`CC1(C)CN(c2ccc(-c3oc(-c4ccc(C(F)(F)F)c5[nH]ccc45)nc3C(N)=O)cc2)CCN1` [Example 12, 2-(7-Trifluoromethyl-1H-Indol-4-yl)-5-[4-(3,3-dimethyl-piperazin-1-yl)-phenyl]-oxazole-4-carboxylic acid amide] returned an IC50 on Aurora A kinase of 16 nM. At Aurora B kinase, this compound had an IC50 of 14 nM. On FLT3 kinase, half-maximal inhibition (IC50) required 2.8 nM. In series [3], the Papp A→B stood at 0.036 ×10⁻⁶ cm/s, the Papp B→A was 1.21 ×10⁻⁶ cm/s and the efflux ratio stood at 33.5.
Take `NC(=O)c1nc(-c2cccc3[nH]ccc23)oc1-c1ccc(N2CCNCC2)cc1` [Example M-12, 2-(1H-Indol-4-yl)-5-(4-piperazin-1-yl-phenyl)-oxazole-4-carboxylic acid amide, reference compound]: the IC50 against Aurora A kinase came out at 75 nM; on Aurora B kinase, 13 nM; against FLT3 kinase, 1.6 nM; in the series on HCT-116 [1], 680 nM. The “[Polyploidy] lowest concentration producing a distinct polyploid phenotype” value with HCT-116 [2] was 1.0 µM. For the same compound, in series [3], the Papp A→B was determined as 1.13 ×10⁻⁶ cm/s. Moreover, the Papp B→A in series [3] worked out at 58.3 ×10⁻⁶ cm/s. Besides, the efflux ratio in series [3] turned out to be 51.7.
With `Nc1ccn([C@@H]2O[C@H](CO)[C@@H](O)[C@@H]2O)c(=O)n1` [cytarabine, reference compound], the “effect on tumour growth (tumour volume)” value with MV4-11 xenograft tumors is “slowed down but did not completely block the tumour growth”. For the same compound, in the series on MV4-11 xenograft tumors (5 days on, 2 days off), the “tumour inhibitory rate (IR)” value is 66.72%.
